In this test the test system is caudate lesioned mouse. Put plainly: caudate lesioned mouse test (anti-parkinson activity). To be noted: for ED50: caudate lesioned mouse; for responders at 94 µmol/kg: dose 0.094 m. mole/kg; for responders at 208 µmol/kg: dose 0.208 m. mole/kg; for responders at 416 µmol/kg: dose 0.416 m. mole/kg; for responders at 132 µmol/kg: dose 0.132 m. mole/kg. It is filed as in vivo. As for the experimental part:
An index of anti-parkinson activity was determined using the caudate lesioned mouse test described by Lotti, Life Sci., 10, 781-789 (1971). The mice having unilateral lesions of the caudate nucleus prepared according to the method of Lotti supra were observed immediately after the surgical procedure for strong postural asymmetries directed to the same side as the lesion. When this asymmetry was not observed, the mice were discarded. Operated mice were allowed at least 14 days to recover prior to drug testing. The lesioned mice were tested with apomorphine using 1.7 mg./kg. of base administered intraperitoneally in a 1% suspension in gum tragacanth. […] Only those mice which twisted or circled toward the lesioned side in all three test periods after the apomorphine injection were retained for further drug testing. The test drugs were all administered in 1% gum tragacanth suspension in a volume of 0.1 ml./10 g. of body weight. Doses were expressed in mg./kg. of free base.
Results of tests in the caudate lesioned mouse test described above which were obtained on the compounds of the invention are given in the table below identified, in each case, by the example numbers above where their preparations are described. Corresponding data for reference apomorphine diesters described in German patent application No. 2,154,162 are given in a side-by-side relationship for a number of the species. The reference compounds, designated Ref. 1, Ref. 1B, Ref. 1C, Ref. 1D, Ref. 1E, Ref. 1F, Ref. 2 and Ref. 2A correspond, respectively, to the compounds of the invention identified by Examples 1, 1B, 1C, 1D, 1E, 1F, 2 and 2A and differ from the latter only in having a methyl group on the apomorphine nitrogen from instead of an n-propyl group as present in the instant compounds.

Where [1] appears, read: Mus musculus, 0.5 h, dose 0.026 m. mole/kg, 1/2 h post-drug, read-out: No. Mice Affected/No. Mice Tested, 1/2 h (converted).
The mark [2] stands for this setting: Mus musculus, 0.5 h, 1/2 h post-drug, read-out: No. Mice Affected/No. Mice Tested, 1/2 h (converted).
The mark [3] stands for this setting: Mus musculus, dose 0.026 m. mole/kg, 1 h post-drug, read-out: No. Mice Affected/No. Mice Tested, 1 h (converted).
Setting [4] is: Mus musculus, dose 0.026 m. mole/kg, 2 h post-drug, read-out: No. Mice Affected/No. Mice Tested, 2 h (converted).
Setting [5] is: Mus musculus, dose 0.026 m. mole/kg, 4 h post-drug, read-out: No. Mice Affected/No. Mice Tested, 4 h (converted).
Setting [6] is: Mus musculus, dose 0.026 m. mole/kg, 6 h post-drug, read-out: No. Mice Affected/No. Mice Tested, 6 h (converted).
Where [7] appears, read: Mus musculus, dose 0.026 m. mole/kg, 24 h post-drug, read-out: No. Mice Affected/No. Mice Tested, 24 h.
The mark [8] stands for this setting: Mus musculus, dose 0.026 m. mole/kg, total, read-out: No. Mice Affected/No. Mice Tested, Total (converted).
[9] abbreviates: Mus musculus, 1 h post-drug, read-out: No. Mice Affected/No. Mice Tested, 1 h (converted).
Where [10] appears, read: Mus musculus, 2 h post-drug, read-out: No. Mice Affected/No. Mice Tested, 2 h (converted).
Setting [11] is: Mus musculus, 4 h post-drug, read-out: No. Mice Affected/No. Mice Tested, 4 h (converted).
Where [12] appears, read: Mus musculus, 6 h post-drug, read-out: No. Mice Affected/No. Mice Tested, 6 h (converted).
[13] abbreviates: Mus musculus, 24 h post-drug, read-out: No. Mice Affected/No. Mice Tested, 24 h (converted).
The mark [14] stands for this setting: Mus musculus, total, read-out: No. Mice Affected/No. Mice Tested, Total (converted).
Setting [15] is: Mus musculus, 24 h post-drug, read-out: No. Mice Affected/No. Mice Tested, 24 h.
The mark [16] stands for this setting: Mus musculus, 0.5 h, read-out: No. Mice Affected/No. Mice Tested, 1/2 h.
Setting [17] is: Mus musculus, 1 h, read-out: No. Mice Affected/No. Mice Tested, 1 h.
[18] abbreviates: Mus musculus, 2 h, read-out: No. Mice Affected/No. Mice Tested, 2 h.
The mark [19] stands for this setting: Mus musculus, 4 h, read-out: No. Mice Affected/No. Mice Tested, 4 h.
[20] abbreviates: Mus musculus, 6 h, read-out: No. Mice Affected/No. Mice Tested, 6 h.
The mark [21] stands for this setting: Mus musculus, 24 h, read-out: No. Mice Affected/No. Mice Tested, 24 h.
[22] abbreviates: Mus musculus, read-out: No. Mice Affected/No. Mice Tested, Total.

Like-named read-outs stand apart in the source and are kept apart here.

`CCCN1CCc2cccc3c2C1Cc1ccc(OC(=O)c2ccc(C)cc2)c(OC(=O)c2ccc(C)cc2)c1-3` (centres unmarked) [Ex. 1H, N-Propylnorapomorphine bis-4-methylbenzoate]: the ED50 (ED50, read-out: ED50) stood at 70 µmol/kg. Moreover, the responders at 26 µmol/kg is 0% under setting [1]; 0% under setting [3]; 0% under setting [4]; 0% under setting [5]; 0% under setting [6]; 0% under setting [7]. For the same molecule, the responders at 26 µmol/kg under setting [8] was 0%. The responders at 94 µmol/kg reads like this: under setting [2], 100%; under setting [9], 75%; under setting [10], 75%; under setting [11], 75%; under setting [12], 75%; under setting [13], 75%. In addition, under setting [14], the responders at 94 µmol/kg was 100%.

`CN1CCc2cccc3c2C1Cc1ccc(OC(=O)C(C)(C)C)c(OC(=O)C(C)(C)C)c1-3` (centres unmarked) [Ref. 1C, reference compound]: the responders at 208 µmol/kg reads like this: under setting [2], 0%; (Mus musculus, 1 h post-drug, read-out: No. Mice Affected/No. Mice Tested, 1 h) 0%; under setting [11], 0%; under setting [12], 0%; under setting [13], 0%; under setting [14], 0%. Further, the responders at 416 µmol/kg by setting is: under setting [2], 0%; under setting [9], 33.3%; under setting [11], 66.7%; under setting [12], 66.7%; under setting [15], 0%; under setting [14], 66.7%.

Regarding `CCCN1CCc2cccc3c2C1Cc1ccc(O)c(O)c1-3` (centres unmarked) [N-propylnorapomorphine], the ED50 (Mus musculus, po, read-out: ED50, on oral administration, oral) came out at 3.2 µmol/kg.

`CCCN1CCc2cccc3c2C1Cc1ccc(OC(=O)CC)c(OC(=O)CC)c1-3` (centres unmarked) [Ex. 1 (Base), N-propylnorapomorphine dipropionate]: the responders at 5.2 µmol/kg runs as follows: under setting [16], 0%; under setting [17], 0%; under setting [18], 0%; under setting [19], 0%; under setting [20], 0%; under setting [21], 0%. Also, under setting [22], the responders at 5.2 µmol/kg amounted to 0%. Moreover, the responders at 13 µmol/kg was 75% under setting [16]; 75% under setting [17]; 75% under setting [18]; 75% under setting [19]; 50% under setting [20]; 0% under setting [21]. Under setting [22], the responders at 13 µmol/kg is 75%. The responders at 26 µmol/kg is, setting by setting: under setting [16], 100%; under setting [17], 100%; under setting [18], 75%; under setting [19], 75%; under setting [20], 25%; under setting [21], 0%. In addition, the responders at 26 µmol/kg under setting [22] was 100%. Under “Mus musculus, ED50”, this molecule yielded an ED50 of 10 µmol/kg. For the same molecule, the “Molar Potency Ratio Claimed/Ref. Ester” value (claimed N-propyl ester vs corresponding N-methyl reference ester) was found to be 10.

On to `CN1CCc2cccc3c2C1Cc1ccc(OC(=O)c2ccc(Cl)cc2)c(OC(=O)c2ccc(Cl)cc2)c1-3` (centres unmarked) [Ref. 1F, reference compound], for which the responders at 416 µmol/kg is 0% under setting [2]; 0% under setting [9]; 0% under setting [11]; 0% under setting [12]; 0% under setting [15]; 0% under setting [14].

On to `CCCC(=O)Oc1ccc2c(c1OC(=O)CCC)-c1cccc3c1C(C2)N(CCC)CC3` (centres unmarked) [Ex. 1A, N-Propylnorapomorphine dibutanoate], for which the responders at 26 µmol/kg under setting [1] is 0%; the responders at 26 µmol/kg under setting [3] is 0%; the responders at 26 µmol/kg under setting [4] is 0%; the responders at 26 µmol/kg under setting [5] is 0%; the responders at 26 µmol/kg under setting [6] was 0%; the responders at 26 µmol/kg under setting [7] was 0%. Further, under setting [8], the responders at 26 µmol/kg was 0%. The responders at 132 µmol/kg by setting is: under setting [2], 50%; under setting [9], 100%; under setting [10], 100%; under setting [11], 100%; under setting [12], 100%; under setting [13], 100%. Also, the responders at 132 µmol/kg under setting [14] is 100%.

The values are drawn from patent US4126616A, “N-propylnorapomorphine diesters” (Hinshaw; William B., priority 1976, dated 1978).
